For one data set, the system named is RPMI 8226. The data set is described as follows: MTT cell proliferation assay. The data set is classed as cell-based. The conditions noted are these: Homo sapiens, 48 h. How it is done: (§1) U266, RPMI 8226 cells (1×10^4), primary CD138+ cells, PBMCs (5×10^4), and BMSCs (1×10^4) were cultured in 96-well dishes and incubated without or with 6-OAP at indicated concentration for 48 h. MM.1S and MM.1R cells (2×10^4) were seeded into 96-well dishes and pre-cultured for 24 h, then treated with 6-OAP for 48 h. Cell proliferation was determined by MTT assay. Cell viability was estimated by trypan blue dye exclusion.
(In general: Tetrazolium assays rely on reduction of a dye to a coloured formazan, in cell work by metabolically active cells.)

Another data set has as its system U266. The data set is described as follows: MTT cell proliferation assay. The conditions noted are these: Homo sapiens, U-266, 48 h. The data set is classed as cell-based. The method, then: as §1
The next data set has as its system MM.1S. Kind of data set: MTT cell proliferation assay. The class given is cell-based. Conditions: Homo sapiens, MM1.S, 48 h. The method, then:
as §1

In another data set the test system is MM.1R. The data set is described as follows: MTT cell proliferation assay. The class given is cell-based. The conditions noted are these: Homo sapiens, 48 h. How it is done:
as §1

The next data set relates to pIκBα and pP65. The data set is described as follows: Western blotting, TNF-α stimulation. The class given is cell-based, human. Conditions: MM.1S; 6-OAP 5 µM 12 h; TNF-α 5 ng/ml. The method, then:
Cell pellets were lysed in RIPA buffer containing 50 mM Tris pH 8.0, 150 mM NaCl, 0.1% SDS, 0.5% deoxycholate, 1% NP-40, 1 mM DTT, 1 mM NaF, 1 mM sodium vanadate, and protease inhibitors cocktail (Sigma). For immunoprecipitations, cells were lysed on ice for 15 minutes in RIPA buffer. Lysates were centrifuged. The supernatant was incubated with indicated antibodies overnight, after which protein A/G Plus beads (Santa Cruz Biotechnology) were added and incubated for 3 h. The beads were washed 4 times in RIPA buffer. Then the beads were resuspended in 1× sample buffer and boiled for 3 min. Protein extracts were quantitated and loaded on 8% to 12% sodium dodecyl sulfate polyacrylamide gel, electrophoresed, and transferred to a nitrocellulose membrane (Whatman). The membrane was incubated with primary antibody, washed, and incubated with horseradish peroxidase (HRP)–conjugated secondary antibody (Pierce). Detection was performed by using a chemiluminescent western detection kit (Cell Signaling). […]
Figure 5 6-OAP overcomes the protective effects of IL-6, IGF-I and BMSCs on MM cells. […] Cell proliferation was assessed by MTT assay. […] Cell proliferation was assessed by MTT assay. *p<.01,** p<.05. […]
On the technique in general: Immunoblotting shows a protein as a band on a membrane.

The subject of the next data set is U266 cells. The data set is described as follows: U266 xenograft murine model. The data set is classed as in vivo, BALB/c nude mice. The method, then: All mice used in this study were bred and maintained in a specific pathogen-free environment. BALB/c nude mice (6 to 7 weeks old) were obtained from the Shanghai Laboratory Animal Center (Shanghai, China), and maintained and monitored in a specific pathogen-free environment. All animal studies were conducted according to protocols approved by the Animal Ethics Committee of our institute. The mice were injected subcutaneously with 1×10^7 U266 cells in 100 µL RPMI-1640 media into the right flank. Treatments were started when the tumors reached a palpable size. The control group received vehicle (0.8% DMSO/18% Cremophor/8% Ethanol in normal saline), while the other two groups received intraperitoneally injection of 6-OAP (50 or 75 mg/kg per day, five times a week for 4 weeks). Caliper measurements of the longest perpendicular tumor diameters were performed twice a week to estimate the tumor volume, using the following formula: 4π/3× (width/2)^2× (length/2), representing the 3-dimensional volume of an ellipse. Animals were sacrificed when tumors reached 2 cm or if the mice appeared moribund to prevent unnecessary morbidity to the mice. At the time of the animals' death, tumors were excised; cells were separated and subjected to immunofluorescence analysis or lyzed for Western blotting.
Figure 6 In vivo therapeutic efficacy of 6-OAP on human MM murine model. Nude mice were given subcutaneous inoculations in the right flank with 1×10^7 U266 cells. When the tumors reached a palpable size, the mice were treated intraperitoneally with vehicle or 6-OAP (50 or 75 mg/kg, 5 times a week for 4 weeks). […] (C) Survival curve of control and 6-OAP-treated mice. […] (E) Tumor samples were harvested from mice treated with vehicle or 50 mg/kg 6-OAP and subjected to immunofluorescence analysis using an anti-α-tubulin antibody and DAPI. (F) Tumor tissues were harvested from mice treated with vehicle or 50 mg/kg 6-OAP, whole-tissue lysates were subjected to Western blotting using an anti-cyclin B1 antibody. (G) The concentration-time profiles of 6-OAP after intravenous (30 mg/kg) or intraperitoneal (40 mg/kg) injection of 6-OAP in Sprague-Dawley rats.

For `CC=C(C)C(=O)OC1C2C(CC(C)C3C=CC(=O)C31C)OC(=O)C2C` (stereo not shown) [6-OAP, 6-O-angeloylplenolin], the half-inhibitory concentration (IC50) (as a rule, the concentration that gives 50% inhibition) in the data set with RPMI 8226 amounted to 3.5 ± 0.3 µM; in the data set on U266, 8.6 ± 0.5 µM; in the data set with MM.1S, 6.1 ± 0.4 µM; in the data set on MM.1R, 9.2 ± 2.1 µM. For the same molecule, the “TNF-α-induced pIκBα and pP65” value with pIκBα and pP65 was “inhibited phosphorylation”. Moreover, the “cyclin B1 in tumor tissues” value in the data set with U266 cells (50 mg/kg, Western blotting, vs control mice) was “accumulated”. The “spindle formation in tumor samples” value in the data set with U266 cells (50 mg/kg, immunofluorescence, anti-α-tubulin) is “apparent spindle formation was detected”. Also, the tumor growth entry with U266 cells (50 and 75 mg/kg ip, five times a week for four weeks, vs vehicle, P<.0001) is listed as “significantly inhibited tumor growth”. Further, the “body weight of mice” value in the data set with U266 cells (50 or 75 mg/kg ip, 4 weeks) is reported as “did not reduce body weight”. The survival entry with U266 cells (50 or 75 mg/kg ip, vs vehicle control) was “prolonged”.
